Results from patent US20240415819A1, “MACROCYCLIC COMPOUNDS AS PROTEASOME SUBUNIT BETA TYPE-5 INHIBITORS” (Lead Discovery Center GmbH, priority 2021, published 2024).

Tests used:
HT-29 cells = experiment: CellTiter-Glo luminescent cell viability assay with HT-29 cells (72h incubation); format: cell-based, human; conditions: Homo sapiens, HT-29, HT29 cells, read-out: CTG HT29
Outline: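 400 cells per well in DMEM/10% FCS were dosed after 24 h and kept 72 h at 37 °C, 5% CO2. ATP-based luminescence (CellTiter-Glo) normalized to DMSO and 10 μM staurosporine controls; IC50 by dose-response fit.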

[1] = test system: A549 (human lung carcinoma cell line); experiment: Glo assay of A549 cells (Table 3; ProteasomeGlo plating scheme); format: cell-based; conditions: Homo sapiens; A549 cells; read-out: PGLo A549
Outline: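 Compound treatment lasts 105 minutes at 37° C. under 5% CO2. Suc-LLVY-Glo substrate premixed with detection reagent (60 min at room temperature) is then added directly to the cells, and luminescence after 10-15 min in the dark gives the IC50 in nM.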

[2] = molecular target: T1, β5 subunit of the human immunoproteasome (IPS) (Homo sapiens, UniProt P28062); experiment: β5 inhibition assay, human immunoproteasome (Suc-LLVY-AMC); format: biochemical; conditions: IC50 class, Suc-LLVY-AMC substrate
T1 construct: purchased Boston Biochem E-370
Outline: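 Human immunoproteasome (1 nM final) was preincubated 10 min at RT with compound in 100 mM HEPES pH 7.5, 50 mM NaCl, 0.02% SDS, 1 mM DTT. Suc-LLVY-AMC (22.6 μM final) was then added for 4 h at RT in the dark. After stopping with 1 μM bortezomib, AMC fluorescence was read (ex 355/em 460 nm).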

In the case of `Cc1ccc2cc1CNC(=O)[C@H](CCc1ccccc1)NC(=O)[C@@H](NC(=O)Cc1csc(N)n1)CC(=O)N1CCCC(CCO2)C1` (stereo partly drawn) [Compound 302, 2-(2-aminothiazol-4-yl)-N-((9S,12S)-5^4-methyl-8,11,14-trioxo-9-phenethyl-4-oxa-7,10-diaza-1(3,1)-piperidina-5(1,3)-benzenacyclotetradecaphane-12-yl)acetamide], the IC50 (HT-29 cells) is reported as < 100 nM, the IC50 [1] is reported as < 100 nM and the IC50 [2] is reported as < 100 nM.

`Cc1ccc2cc1CNC(=O)[C@H](CCc1ccccc1)NC(=O)[C@@H](NC(=O)C(C)c1ccc(N)cc1)CC(=O)N1CCCC(CCO2)C1` (stereo partly drawn) [Compound 309, 2-(4-aminophenyl)-N-((9S,12S)-5^4-methyl-8,11,14-trioxo-9-phenethyl-4-oxa-7,10-diaza-1(3,1)-piperidina-5(1,3)-benzenacyclotetradecaphane-12-yl)propanamide] was tested, and the IC50 (HT-29 cells) was < 100 nM, the IC50 [1] was < 100 nM and the IC50 [2] was < 100 nM.

`Cc1ccc2cc1CNC(=O)[C@H](CCc1ccccc1)NC(=O)[C@@H](NC(=O)Cc1nnc(N)s1)CC(=O)N1CCCC(CCO2)C1` (stereo partly drawn) [Compound 310, 2-(5-amino-1,3,4-thiadiazol-2-yl)-N-((9S,12S)-54-methyl-8,11,14-trioxo-9-phenethyl-4-oxa-7,10-diaza-1(3,1)-piperidina-5(1,3)-benzenacyclotetradecaphane-12-yl)acetamide] was tested, and the IC50 (HT-29 cells) was < 100 nM, the IC50 [1] was < 100 nM and the IC50 [2] was < 100 nM.

With `Cc1ccc2cc1CNC(=O)[C@H](CCc1ccccc1)NC(=O)[C@@H](NC(=O)Cc1cnc(N)s1)CC(=O)N1CCCC(CCO2)C1` (stereo partly drawn) [Compound 311, 2-(2-aminothiazol-5-yl)-N-((9S,12S)-5^4-methyl-8,11,14-trioxo-9-phenethyl-4-oxa-7,10-diaza-1(3,1)-piperidina-5(1,3)-benzenacyclotetradecaphane-12-yl)acetamide] the IC50 (HT-29 cells) was < 100 nM, the IC50 [1] was < 100 nM and the IC50 [2] was < 100 nM.

For `Cc1ccc2cc1CNC(=O)[C@H](CCc1ccccc1)NC(=O)[C@@H](NC(=O)OCc1ccccc1)CC(=O)N1CC(CCO2)CC2CCCCC21` (stereo partly drawn) [Compound 314, benzyl ((9S,12S)-5^4-methyl-8,11,14-trioxo-9-phenethyl-11,12,13,14,14a,15,16,17,18,18a-decahydro-4-oxa-7,10-diaza-1(3,1)-quinolina-5(1,3)-benzenacyclotetradecaphane-12-yl)carbamate], the IC50 (HT-29 cells) was < 100 nM, the IC50 [1] was < 100 nM and the IC50 [2] was < 100 nM.

For `Cc1ccc2cc1CNC(=O)[C@H](CCc1ccccc1)NC(=O)[C@@H](NC(=O)Cc1cc(Cl)c(N)c(Cl)c1)CC(=O)N1CCCC(CCO2)C1` (stereo partly drawn) [Compound 320, 2-(4-amino-3,5-dichlorophenyl)-N-((9S,12S)-5^4-methyl-8,11,14-trioxo-9-phenethyl-4-oxa-7,10-diaza-1(3,1)-piperidina-5(1,3)-benzenacyclotetradecaphane-12-yl)acetamide], the IC50 (HT-29 cells) was < 100 nM, the IC50 [1] was < 100 nM and the IC50 [2] was < 100 nM.

In the case of `Cc1ccc2cc1CNC(=O)[C@H](CCc1ccccc1)NC(=O)[C@@H](NC(=O)OCc1ccccc1)CCCC(=O)NCCCCO2` [Compound 322, benzyl ((12S,15S)-1^4-methyl-8,13, 16-trioxo-15-phenethyl-2-oxa-7,14,17-triaza-1(1,3)-benzenacyclooctadecaphane-12-yl)carbamate], the IC50 (HT-29 cells) is reported as 100 to 500 nM, the IC50 [1] is reported as 1000 to 5000 nM and the IC50 [2] is reported as < 100 nM.

With `COC(C(=O)N[C@H]1CC(=O)N2CCCC(CCOc3ccc(C)c(c3)CNC(=O)[C@H](CCc3ccccc3)NC1=O)C2)c1ccc(N)cc1` (stereo partly drawn) [Compound 326, 2-(4-aminophenyl)-2-methoxy-N-((9S,12S)-5^4-methyl-8,11,14-trioxo-9-phenethyl-4-oxa-7,10-diaza-1(3,1)-piperidina-5(1,3)-benzenacyclotetradecaphane-12-yl)acetamide] the IC50 (HT-29 cells) was < 100 nM, the IC50 [1] was < 100 nM and the IC50 [2] was < 100 nM.

`Cc1ccc2cc1CNC(=O)[C@H](CCc1ccccc1)NC(=O)[C@@H](NC(=O)Cc1nc(-c3ccncc3)n[nH]1)CC(=O)N1CCCC(CCO2)C1` (stereo partly drawn) [Compound 329, N-((9S,12S)-5^4-methyl-8,11,14-trioxo-9-phenethyl-4-oxa-7,10-diaza-1(3,1)-piperidina-5(1,3)-benzenacyclotetradecaphane-12-yl)-2-(3-(pyridin-4-yl)-1H-1,2,4-triazol-5-yl)acetamide] was tested, and the IC50 (HT-29 cells) was < 100 nM, the IC50 [1] was 100 to 500 nM and the IC50 [2] was < 100 nM.

`Cc1n[nH]c(CC(=O)N[C@H]2CC(=O)N3CCCC(CCOc4ccc(C)c(c4)CNC(=O)[C@H](CCc4ccccc4)NC2=O)C3)n1` (stereo partly drawn) [Compound 332, 2-(3-methyl-1H-1,2,4-triazol-5-yl)-N-((9S,12S)-5^4-methyl-8,11,14-trioxo-9-phenethyl-4-oxa-7,10-diaza-1(3,1)-piperidina-5(1,3)-benzenacyclotetradecaphane-12-yl)acetamide] was tested, and the IC50 (HT-29 cells) was < 100 nM, the IC50 [1] was < 100 nM and the IC50 [2] was < 100 nM.

`Cc1ccc2cc1CNC(=O)[C@H](CCc1ccccc1)NC(=O)[C@@H](NC(=O)Cc1ccccc1F)CC(=O)N1CCCC(CCO2)C1` (stereo partly drawn) [Compound 333, 2-(2-fluorophenyl)-N-((9S,12S)-5^4-methyl-8,11,14-trioxo-9-phenethyl-4-oxa-7,10-diaza-1(3,1)-piperidina-5(1,3)-benzenacyclotetradecaphane-12-yl)acetamide] was tested, and the IC50 (HT-29 cells) was < 100 nM, the IC50 [1] was < 100 nM and the IC50 [2] was < 100 nM.

For `Cc1ccc2cc1CNC(=O)[C@H](CCc1ccccc1)NC(=O)[C@@H](NC(=O)CC1=NN(c3ccccc3)C(=O)C1)CC(=O)N1CCCC(CCO2)C1` (stereo partly drawn) [Compound 334, N-((9S,12S)-5^4-methyl-8,11,14-trioxo-9-phenethyl-4-oxa-7,10-diaza-1(3,1)-piperidina-5(1,3)-benzenacyclotetradecaphane-12-yl)-2-(5-oxo-1-phenyl-4,5-dihydro-1H-pyrazol-3-yl)acetamide], the IC50 (HT-29 cells) was < 100 nM, the IC50 [1] was 100 to 500 nM and the IC50 [2] was < 100 nM.

For `Cc1ccc2cc1CNC(=O)[C@H](CCc1ccccc1)NC(=O)[C@@H](NC(=O)Cc1cc(O)on1)CC(=O)N1CCCC(CCO2)C1` (stereo partly drawn) [Compound 335, 2-(5-hydroxyisoxazol-3-yl)-N-((9S,12S)-5^4-methyl-8,11,14-trioxo-9-phenethyl-4-oxa-7,10-diaza-1(3,1)-piperidina-5(1,3)-benzenacyclotetradecaphane-12-yl)acetamide], the IC50 (HT-29 cells) was < 100 nM, the IC50 [1] was < 100 nM and the IC50 [2] was < 100 nM.

With `Cc1ccc2cc1CNC(=O)C(CCc1ccncc1)NC(=O)[C@@H](NC(=O)OCc1ccccc1)CC(=O)N1CCCC(CCO2)C1` (stereo partly drawn) [Compound 336, benzyl ((12S)-5^4-methyl-8,11,14-trioxo-9-(2-(pyridin-4-yl)ethyl)-4-oxa-7,10-diaza-1(3,1)-piperidina-5(1,3)-benzenacyclotetradecaphane-12-yl)carbamate] the IC50 (HT-29 cells) was < 100 nM, the IC50 [1] was < 100 nM and the IC50 [2] was < 100 nM.

With `Cc1ccc2cc1CNC(=O)[C@H](CCc1ccccc1)NC(=O)[C@@H](NC(=O)OCc1ccccc1)CC(=O)N1CC(C)CC(CCO2)C1` (stereo partly drawn) [Compound 337, benzyl ((9S,12S)-1^5,5^4-dimethyl-8,11,14-trioxo-9-phenethyl-4-oxa-7,10-diaza-1(3,1)-piperidina-5(1,3)-benzenacyclotetradecaphane-12-yl)carbamate] the IC50 (HT-29 cells) was < 100 nM, the IC50 [1] was 100 to 500 nM and the IC50 [2] was < 100 nM.

With `CC(=O)N[C@H]1CC(=O)N2CCCC(CCOc3ccc(C)c(c3)CNC(=O)C(CCC3CCN(C(C)=O)CC3)NC1=O)C2` (stereo partly drawn) [Compound 338, N-((12S)-9-(2-(1-acetylpiperidin-4-yl)ethyl)-5^4-methyl-8,11,14-trioxo-4-oxa-7,10-diaza-1(3,1)-piperidina-5(1,3)-benzenacyclotetradecaphane-12-yl)acetamide] the IC50 (HT-29 cells) was < 100 nM, the IC50 [1] was 100 to 500 nM and the IC50 [2] was < 100 nM.

With `Cc1ccc2cc1CNC(=O)[C@H](CCc1ccccc1)NC(=O)[C@@H](NC(=O)c1ccc3cc(N)ccc3c1)CC(=O)N1CCCC(CCO2)C1` (stereo partly drawn) [Compound 339, 6-amino-N-((9S,12S)-5^4-methyl-8,11,14-trioxo-9-phenethyl-4-oxa-7,10-diaza-1(3,1)-piperidina-5(1,3)-benzenacyclotetradecaphane-12-yl)-2-naphthamide] the IC50 (HT-29 cells) was < 100 nM, the IC50 [1] was 100 to 500 nM and the IC50 [2] was < 100 nM.

`Cc1ccc2cc1CNC(=O)[C@H](CCc1ccccc1)NC(=O)[C@@H](NC(=O)Cc1nnc(N)[nH]1)CC(=O)N1CCCC(CCO2)C1` (stereo partly drawn) [Compound 340, 2-(5-amino-1H-1,2,4-triazol-3-yl)-N-((9S,12S)-5^4-methyl-8,11,14-trioxo-9-phenethyl-4-oxa-7,10-diaza-1(3,1)-piperidina-5(1,3)-benzenacyclotetradecaphane-12-yl)acetamide] was tested, and the IC50 (HT-29 cells) was 100 to 500 nM, the IC50 [1] was < 100 nM and the IC50 [2] was < 100 nM.

For `CC(=O)c1ccc(CC(=O)N[C@H]2CC(=O)N3CCCC(CCOc4ccc(C)c(c4)CNC(=O)[C@H](CCc4ccccc4)NC2=O)C3)cc1` (stereo partly drawn) [Compound 341, 2-(4-acetylphenyl)-N-((9S,12S)-54-methyl-8,11,14-trioxo-9-phenethyl-4-oxa-7,10-diaza-1(3,1)-piperidina-5(1,3)-benzenacyclotetradecaphane-12-yl)acetamide], the IC50 (HT-29 cells) was < 100 nM, the IC50 [1] was < 100 nM and the IC50 [2] was < 100 nM.
